pEC50: −log10 of the molar value.
Each compound was assayed on HBV (assay: HBV-DNA antiviral assay using HepG2.117 cells (intracellular HBV DNA by qPCR)). Details: Hepatitis B virus, 72 h, HBV DNA inhibition, 3 days incubation, 2% DMSO.
Assay type: cell-based, genotype D HBV
Procedure, shortened: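 HepG2.117 cells (stable genotype D HBV, Tet-off) seeded without doxycycline, treated next day with 9-point 4-fold dilutions in 2% DMSO for 3 days at 37° C. Intracellular HBV DNA quantified by qPCR against a standard curve; viability by CellTiter-Glo ATP. EC50, EC90, CC50 from variable-slope dose-response fits versus DMSO control.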

SMILES	pEC50
C[C@@H]1Cc2c(n3ncc(Cc4ccccc4)c3n(-c3ccc(-n4nnnc4C(F)(F)F)cc3)c2=O)CN1C(=O)c1ccc(Br)c(C(F)(F)F)c1 (stereo in doubt) [Compound 92a, rac-(11R)-5-benzyl-12-[4-bromo-3-(trifluoromethyl)benzoyl]-11-methyl-7-[4-[5-(trifluoromethyl)tetrazol-1-yl]phenyl]-2,3,7,12-tetrazatricyclo[7.4.0.0^2,6]trideca-1(9),3,5-trien-8-one]	> 7.30
C[C@H]1Cc2c(n3ncc(Cc4ccccc4)c3n(-c3ccc(-n4nnnc4C(F)(F)F)cc3)c2=O)CN1C(=O)c1ccc(Br)c(C(F)(F)F)c1 (stereo in doubt) [Compound 92b, rac-(11S)-5-benzyl-12-[4-bromo-3-(trifluoromethyl)benzoyl]-11-methyl-7-[4-[5-(trifluoromethyl)tetrazol-1-yl]phenyl]-2,3,7,12-tetrazatricyclo[7.4.0.0^2,6]trideca-1(9),3,5-trien-8-one]	< 5.30
C[C@@H]1Cc2c(n3ncc(CC4CC4)c3n(-c3ccc(-c4nc(=O)on4C)cc3)c2=O)CN1C(=O)c1ccc(Br)c(C(F)(F)F)c1 (stereo in doubt) [Compound 93a, 2-methyl-3-[4-[rac-(11R)-12-[4-bromo-3-(trifluoromethyl)benzoyl]-5-(cyclopropylmethyl)-11-methyl-8-oxo-2,3,7,12-tetrazatricyclo[7.4.0.0^2,6]trideca-1(9),3,5-trien-7-yl]phenyl]-1,2,4-oxadiazol-5-one]	> 7.30
C[C@H]1Cc2c(n3ncc(CC4CC4)c3n(-c3ccc(-c4nc(=O)on4C)cc3)c2=O)CN1C(=O)c1ccc(Br)c(C(F)(F)F)c1 (stereo in doubt) [Compound 93b, 2-methyl-3-[4-[rac-(11S)-12-[4-bromo-3-(trifluoromethyl)benzoyl]-5-(cyclopropylmethyl)-11-methyl-8-oxo-2,3,7,12-tetrazatricyclo[7.4.0.0^2,6]trideca-1(9),3,5-trien-7-yl]phenyl]-1,2,4-oxadiazol-5-one]	> 7.30
CC(C)Cc1cnn2c3c(c(=O)n(-c4ccc(-c5nc(=O)on5C)cc4)c12)C[C@@H](C)N(C(=O)c1ccc(Br)c(C(F)(F)F)c1)C3 (stereo in doubt) [Compound 94a, 2-methyl-3-[4-[rac-(11R)-12-[4-bromo-3-(trifluoromethyl)benzoyl]-5-isobutyl-11-methyl-8-oxo-2,3,7,12-tetrazatricyclo[7.4.0.0^2,6]trideca-1(9),3,5-trien-7-yl]phenyl]-1,2,4-oxadiazol-5-one]	> 7.30
CC(C)Cc1cnn2c3c(c(=O)n(-c4ccc(-c5nc(=O)on5C)cc4)c12)C[C@H](C)N(C(=O)c1ccc(Br)c(C(F)(F)F)c1)C3 (stereo in doubt) [Compound 94b, 2-methyl-3-[4-[rac-(11S)-12-[4-bromo-3-(trifluoromethyl)benzoyl]-5-isobutyl-11-methyl-8-oxo-2,3,7,12-tetrazatricyclo[7.4.0.0^2,6]trideca-1(9),3,5-trien-7-yl]phenyl]-1,2,4-oxadiazol-5-one]	6.30 to 7.30
CC(C)Cc1cnn2c3c(c(=O)n(-c4ccc5c(c4)nnn5C)c12)C[C@@H](C)N(C(=O)c1ccc(Br)c(C(F)(F)F)c1)C3 (stereo in doubt) [Compound 95a, rac-(11R)-12-[4-bromo-3-(trifluoromethyl)benzoyl]-5-isobutyl-11-methyl-7-(1-methylbenzotriazol-5-yl)-2,3,7,12-tetrazatricyclo[7.4.0.0^2,6]trideca-1(9),3,5-trien-8-one]	> 7.30
CC(C)Cc1cnn2c3c(c(=O)n(-c4ccc5c(c4)nnn5C)c12)C[C@H](C)N(C(=O)c1ccc(Br)c(C(F)(F)F)c1)C3 (stereo in doubt) [Compound 95b, rac-(11S)-12-[4-bromo-3-(trifluoromethyl)benzoyl]-5-isobutyl-11-methyl-7-(1-methylbenzotriazol-5-yl)-2,3,7,12-tetrazatricyclo[7.4.0.0^2,6]trideca-1(9),3,5-trien-8-one]	6.30 to 7.30
Cc1cnn(-c2ccc(-n3c(=O)c4c(n5ncc(CC(C)C)c35)CN(C(=O)c3ccc(Br)c(C(F)(F)F)c3)[C@H](C)C4)cc2)c1 (stereo in doubt) [Compound 98a, rac-(11R)-12-[4-bromo-3-(trifluoromethyl)benzoyl]-5-isobutyl-11-methyl-7-[4-(4-methylpyrazol-1-yl)phenyl]-2,3,7,12-tetrazatricyclo[7.4.0.0^2,6]trideca-1(9),3,5-trien-8-one]	> 7.30
Cc1cnn(-c2ccc(-n3c(=O)c4c(n5ncc(CC(C)C)c35)CN(C(=O)c3ccc(Br)c(C(F)(F)F)c3)[C@@H](C)C4)cc2)c1 (stereo in doubt) [Compound 98b, rac-(11S)-12-[4-bromo-3-(trifluoromethyl)benzoyl]-5-isobutyl-11-methyl-7-[4-(4-methylpyrazol-1-yl)phenyl]-2,3,7,12-tetrazatricyclo[7.4.0.0^2,6]trideca-1(9),3,5-trien-8-one]	6.30 to 7.30
Cc1cnn(-c2ccc(-n3c(=O)c4c(n5ncc(CC(C)C)c35)CN(C(=O)c3ccc(Br)c(C(F)(F)F)c3)[C@H](C)C4)cc2)n1 (stereo in doubt) [Compound 99a, rac-(11R)-12-[4-bromo-3-(trifluoromethyl)benzoyl]-5-isobutyl-11-methyl-7-[4-(4-methyltriazol-2-yl)phenyl]-2,3,7,12-tetrazatricyclo[7.4.0.0^2,6]trideca-1(9),3,5-trien-8-one]	> 7.30
Cc1cnn(-c2ccc(-n3c(=O)c4c(n5ncc(CC(C)C)c35)CN(C(=O)c3ccc(Br)c(C(F)(F)F)c3)[C@@H](C)C4)cc2)n1 (stereo in doubt) [Compound 99b, rac-(11S)-12-[4-bromo-3-(trifluoromethyl)benzoyl]-5-isobutyl-11-methyl-7-[4-(4-methyltriazol-2-yl)phenyl]-2,3,7,12-tetrazatricyclo[7.4.0.0^2,6]trideca-1(9),3,5-trien-8-one]	5.30 to 6.30
Cc1ccn(-c2ccc(-n3c(=O)c4c(n5ncc(CC(C)C)c35)CN(C(=O)c3ccc(Br)c(C(F)(F)F)c3)[C@H](C)C4)cc2)n1 (stereo in doubt) [Compound 100a, rac-(11R)-12-[4-bromo-3-(trifluoromethyl)benzoyl]-5-isobutyl-11-methyl-7-[4-(3-methylpyrazol-1-yl)phenyl]-2,3,7,12-tetrazatricyclo[7.4.0.0^2,6]trideca-1(9),3,5-trien-8-one]	> 7.30
Cc1ccn(-c2ccc(-n3c(=O)c4c(n5ncc(CC(C)C)c35)CN(C(=O)c3ccc(Br)c(C(F)(F)F)c3)[C@@H](C)C4)cc2)n1 (stereo in doubt) [Compound 100b, rac-(11S)-12-[4-bromo-3-(trifluoromethyl)benzoyl]-5-isobutyl-11-methyl-7-[4-(3-methylpyrazol-1-yl)phenyl]-2,3,7,12-tetrazatricyclo[7.4.0.0^2,6]trideca-1(9),3,5-trien-8-one]	5.30 to 6.30
C[C@@H]1Cc2c(n3ncc(CC4CC4)c3n(-c3ccc(C(=O)N(C)CO)cc3)c2=O)CN1C(=O)c1ccc(Br)c(C(F)(F)F)c1 (stereo in doubt) [Compound 101, N-(hydroxymethyl)-N-methyl-4-[rac-(11R)-12-[4-bromo-3-(trifluoromethyl)benzoyl]-5-(cyclopropylmethyl)-11-methyl-8-oxo-2,3,7,12-tetrazatricyclo[7.4.0.0^2,6]trideca-1(9),3,5-trien-7-yl]benzamide]	6.30 to 7.30
CC(C)Cc1cnn2c3c(c(=O)n(-c4ccc(-c5cnnn5C)cc4)c12)C[C@@H](C)N(C(=O)c1ccc(Br)c(C(F)(F)F)c1)C3 (stereo in doubt) [Compound 102a, rac-(11R)-12-[4-bromo-3-(trifluoromethyl)benzoyl]-5-isobutyl-11-methyl-7-[4-(3-methyltriazol-4-yl)phenyl]-2,3,7,12-tetrazatricyclo[7.4.0.0^2,6]trideca-1(9),3,5-trien-8-one]	> 7.30
CC(C)Cc1cnn2c3c(c(=O)n(-c4ccc(-c5cnnn5C)cc4)c12)C[C@H](C)N(C(=O)c1ccc(Br)c(C(F)(F)F)c1)C3 (stereo in doubt) [Compound 102b, rac-(11S)-12-[4-bromo-3-(trifluoromethyl)benzoyl]-5-isobutyl-11-methyl-7-[4-(3-methyltriazol-4-yl)phenyl]-2,3,7,12-tetrazatricyclo[7.4.0.0^2,6]trideca-1(9),3,5-trien-8-one]	6.30 to 7.30
CNC(=O)c1ccc(-n2c(=O)c3c(n4ncc(Cc5ccccc5)c24)CN(C(=O)c2ccc(Br)c(C(F)(F)F)c2)[C@@H](C2CC2)C3)cc1 (stereo in doubt) [Compound 104a, N-methyl-4-[rac-(11R)-5-benzyl-12-[4-bromo-3-(trifluoromethyl)benzoyl]-11-cyclopropyl-8-oxo-2,3,7,12-tetrazatricyclo[7.4.0.0^2,6]trideca-1(9),3,5-trien-7-yl]benzamide]	> 7.30
CNC(=O)c1ccc(-n2c(=O)c3c(n4ncc(Cc5ccccc5)c24)CN(C(=O)c2ccc(Br)c(C(F)(F)F)c2)[C@H](C2CC2)C3)cc1 (stereo in doubt) [Compound 104b, N-methyl-4-[rac-(11S)-5-benzyl-12-[4-bromo-3-(trifluoromethyl)benzoyl]-11-cyclopropyl-8-oxo-2,3,7,12-tetrazatricyclo[7.4.0.0^2,6]trideca-1 (9),3,5-trien-7-yl]benzamide]	> 7.30
C[C@@H]1Cc2c(n3ncc(Cc4ccccc4)c3n(-c3ccc(-c4cnnn4C)cc3)c2=O)CN1C(=O)c1ccc(Br)c(C(F)(F)F)c1 (stereo in doubt) [Compound 105a, rac-(11R)-5-benzyl-12-[4-bromo-3-(trifluoromethyl)benzoyl]-11-methyl-7-[4-(3-methyltriazol-4-yl)phenyl]-2,3,7,12-tetrazatricyclo[7.4.0.0^2,6]trideca-1(9),3,5-trien-8-one]	> 7.30

Reference: patent publication US11820773B2, “Tricyclic compounds” (ALIGOS THERAPEUTICS, INC., priority 2020, dated 2023)
